Results on one compound are retold here after article PMC8058351, “Discovery of Kasugamycin as a Potent Inhibitor of Glycoside Hydrolase Family 18 Chitinases” (Frontiers in Molecular Biosciences, 2021).

Experiment [1] addresses T1, OfChi-h (Ostrinia furnacalis, UniProt Q4AE59).
T1 construct: made in house; host or cells: Pichia pastoris GS115 (secreted)
The experiment can be described thus: Tryptophan fluorescence quenching spectroscopy. The experiment is classed as binding. From the text:
(§1) The recombinant GH18 chitinases for inhibitory activity evaluation including OfChi-h and the catalytic domains of OfChtI from Ostrinia furnacalis (O. furnacalis), human HsCht and acidic mammalian chitinase (AMCase) were extracellularly expressed in Pichia pastoris GS115. SmChiA from Serratia marcescens was expressed in Escherichia coli BL21 (DE3). All the proteins were purified from the culture medium by immobilized metal affinity chromatography (IMAC) as described previously ([Chen et al., 2014]). The purities of the target proteins were analyzed by SDS-PAGE followed by Coomassie Brilliant Blue R-250 staining.
(§2) All tryptophan fluorescence spectroscopy experiments were performed using the Infinite® 200 PRO microplate reader (Tecan, Swiss). The excitation wavelength was fixed to 285 nm and emission spectra were collected between 320 and 450 nm with a slit width of 2 nm. The temperature was maintained at 30°C. Fluorescence quenching experiments were performed in a 100 μL mixture containing 1 μM protein in the 20 mM sodium phosphate buffer (pH 6.0 for OfChi-h, OfChtI, HsCht and SmChiA, and pH 5.2 for AMCase), and by the successive addition of 1 μL compounds stock solution. The inhibitor concentration varied according to the enzyme activity. The dissociation constant (K d) value was analyzed by nonlinear regression with the “One Site-Specific Binding” model using GraphPad Prism 7.04.

The target of experiment [2] is T2, HsCht (Homo sapiens, UniProt Q13231).
T2 construct: the catalytic domains of OfChtI from Ostrinia furnacalis (O. furnacalis), human HsCht and acidic mammalian chitinase (AMCase); made in house; host or cells: Pichia pastoris GS115 (secreted)
T2 sequence (Q13231 22-388 limits assumed): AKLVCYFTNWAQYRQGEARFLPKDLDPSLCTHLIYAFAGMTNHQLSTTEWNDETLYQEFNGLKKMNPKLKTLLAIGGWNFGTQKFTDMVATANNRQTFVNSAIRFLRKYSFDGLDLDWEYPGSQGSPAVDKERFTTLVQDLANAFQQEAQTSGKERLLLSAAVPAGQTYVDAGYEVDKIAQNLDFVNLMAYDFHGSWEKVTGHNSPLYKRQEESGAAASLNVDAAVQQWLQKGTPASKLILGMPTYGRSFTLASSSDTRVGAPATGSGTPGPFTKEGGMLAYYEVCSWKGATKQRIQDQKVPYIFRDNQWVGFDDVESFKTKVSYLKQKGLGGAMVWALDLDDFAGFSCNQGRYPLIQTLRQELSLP
The experiment can be described thus: Tryptophan fluorescence quenching spectroscopy. The class given is binding.
From the text: as §1, §2

For experiment [3], the target named is T3, AMCase (Homo sapiens, UniProt Q9BZP6).
T3 construct: the catalytic domains of OfChtI from Ostrinia furnacalis (O. furnacalis), human HsCht and acidic mammalian chitinase (AMCase); made in house; host or cells: Pichia pastoris GS115 (secreted)
T3 sequence (Q9BZP6 22-390 limits assumed): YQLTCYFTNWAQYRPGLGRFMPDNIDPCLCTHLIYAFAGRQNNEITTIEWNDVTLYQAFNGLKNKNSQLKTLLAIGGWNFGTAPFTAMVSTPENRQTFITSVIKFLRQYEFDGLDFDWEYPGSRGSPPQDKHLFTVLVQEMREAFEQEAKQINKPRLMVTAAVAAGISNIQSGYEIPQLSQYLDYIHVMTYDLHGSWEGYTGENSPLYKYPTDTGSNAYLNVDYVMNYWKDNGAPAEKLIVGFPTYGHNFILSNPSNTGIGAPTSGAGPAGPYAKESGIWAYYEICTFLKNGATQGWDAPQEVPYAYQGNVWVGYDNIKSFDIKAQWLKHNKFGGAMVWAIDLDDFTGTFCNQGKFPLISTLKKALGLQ
The experiment can be described thus: Tryptophan fluorescence quenching spectroscopy. The class given is binding.
From the text: as §1, §2

For experiment [4], the target named is T4, SmChiA (Serratia marcescens, UniProt P07254).
T4 construct: made in house; host or cells: Escherichia coli BL21 (DE3)
T4 sequence (P07254 24-563): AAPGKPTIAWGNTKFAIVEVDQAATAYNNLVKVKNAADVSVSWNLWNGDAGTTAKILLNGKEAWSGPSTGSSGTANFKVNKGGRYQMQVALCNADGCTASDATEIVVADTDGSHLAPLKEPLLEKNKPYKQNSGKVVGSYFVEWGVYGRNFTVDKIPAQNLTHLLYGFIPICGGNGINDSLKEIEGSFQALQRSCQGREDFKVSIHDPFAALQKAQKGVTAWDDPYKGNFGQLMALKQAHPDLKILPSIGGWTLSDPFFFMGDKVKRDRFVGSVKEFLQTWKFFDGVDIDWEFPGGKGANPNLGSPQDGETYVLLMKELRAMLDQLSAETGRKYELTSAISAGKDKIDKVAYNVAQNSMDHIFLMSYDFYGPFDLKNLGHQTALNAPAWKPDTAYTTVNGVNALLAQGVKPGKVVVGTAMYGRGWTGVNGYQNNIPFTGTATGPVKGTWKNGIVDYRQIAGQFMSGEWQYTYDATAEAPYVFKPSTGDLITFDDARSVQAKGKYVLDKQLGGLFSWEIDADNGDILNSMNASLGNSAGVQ
The experiment can be described thus: Tryptophan fluorescence quenching spectroscopy. The class given is binding.
From the text: as §1, §2

Experiment [5] concerns the target T5, OfChtI (Ostrinia furnacalis, UniProt Q2V6H4). The experiment can be described thus: Tryptophan fluorescence quenching spectroscopy. The class given is binding.
From the text: as §1, §2

The target in experiment [6] is T1, OfChi-h. The experiment can be described thus: Inhibitory activity determination with MU-β-(GlcNAc)2, Dixon plots. The experiment is classed as biochemical.
From the text: as §1
(§3) 20 nM enzyme was incubated with 10 μL substrate [0.2 μM MU-β-(GlcNAc)2] in 20 mM sodium phosphate buffer (pH 6.0 for OfChi-h, OfChtI, HsCht and SmChiA, and pH 5.2 for AMCase) containing 2 μL inhibitor at 30°C. The reaction in the absence of inhibitor and substrate was used as the control. After 30 min, an equal volume of 0.5 M Na2CO3 was added to the reaction mixture to stop the reaction, and the fluorescence of the released MU was quantitated using an Infinite® 200 PRO microplate reader (Tecan, Swiss) with excitation and emission wavelengths of 360 and 450 nm, respectively. Experiments were performed in triplicate. For the determination of the mode of inhibition and the inhibition constant (K i) value, the reaction mixtures contained three MU-β-(GlcNAc)2 concentrations (5, 10 and 20 μM for OfChi-h, AMCase and SmChiA; 5, 7.5 and 10 μM for HsCht; and 1, 2 and 4 μM for OfChtI). The inhibitor concentration varied according to the inhibitory activity. The Ki values and types of inhibition were determined by linear fitting of data in Dixon plots.

The target in experiment [7] is T2, HsCht. Described as above. The class given is biochemical.
From the text: as §1, §3

Experiment [8] deals with T3, AMCase. The experiment is described as above. The class given is biochemical.
From the text: as §1, §3

Experiment [9] concerns the target T4, SmChiA. The experiment is described as above. The class given is biochemical.
From the text: as §1, §3

Experiment [10] addresses T5, OfChtI. Described as above. The experiment is classed as biochemical.
From the text: as §1, §3

Molecules are shown by their SMILES. pKd, pKi: −log10 of the molar value.

T1 sequence (Q4AE59 18-553): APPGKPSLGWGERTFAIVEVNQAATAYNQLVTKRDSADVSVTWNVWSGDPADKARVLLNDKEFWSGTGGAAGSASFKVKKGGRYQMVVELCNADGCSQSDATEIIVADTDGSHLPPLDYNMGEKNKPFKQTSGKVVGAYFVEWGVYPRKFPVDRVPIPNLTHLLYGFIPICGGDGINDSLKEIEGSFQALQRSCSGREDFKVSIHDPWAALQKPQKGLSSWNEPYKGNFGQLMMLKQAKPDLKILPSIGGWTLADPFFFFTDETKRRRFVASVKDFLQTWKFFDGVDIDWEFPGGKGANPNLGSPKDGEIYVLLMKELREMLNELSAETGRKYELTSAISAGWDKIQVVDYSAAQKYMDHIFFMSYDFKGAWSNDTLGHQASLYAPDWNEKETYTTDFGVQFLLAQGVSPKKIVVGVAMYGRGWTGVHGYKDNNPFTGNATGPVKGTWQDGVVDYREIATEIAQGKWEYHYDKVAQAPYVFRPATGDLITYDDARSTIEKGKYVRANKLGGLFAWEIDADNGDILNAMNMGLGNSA
T5 sequence (Q2V6H4 19-407): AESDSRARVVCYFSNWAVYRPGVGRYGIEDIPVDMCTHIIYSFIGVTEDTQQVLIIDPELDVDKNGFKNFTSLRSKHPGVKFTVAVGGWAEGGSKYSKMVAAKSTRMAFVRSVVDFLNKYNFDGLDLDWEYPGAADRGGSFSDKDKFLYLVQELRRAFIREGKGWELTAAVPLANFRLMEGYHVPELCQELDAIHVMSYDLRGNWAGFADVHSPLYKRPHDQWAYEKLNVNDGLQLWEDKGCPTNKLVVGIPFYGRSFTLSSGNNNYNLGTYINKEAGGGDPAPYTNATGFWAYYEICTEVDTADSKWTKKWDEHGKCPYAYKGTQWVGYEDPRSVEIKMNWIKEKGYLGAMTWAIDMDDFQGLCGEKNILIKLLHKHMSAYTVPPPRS

Take `C[C@H]1O[C@H](O[C@H]2[C@H](O)[C@@H](O)[C@@H](O)[C@H](O)[C@@H]2O)[C@@H](N)C[C@@H]1NC(=N)C(=O)O` [kasugamycin, Kasugamycin]: the pKd in experiment [1] was 4.94; in experiment [2], 6.04; in [3], 4.80; in [4], 4.47; in experiment [5], 5.40. For the same compound, the pKi in experiment [6] is 5.57; in [7] (K i in the buffer with 1.0 M NaCl, buffer containing 1.0 M NaCl), 5.79; in experiment [7] (K i, 20 mM sodium phosphate buffer pH 6.0, 30°C), 6.60; in experiment [8] it was 5.20; in experiment [9], 4.54; in experiment [10], 6.33. In addition, the mode of inhibition entry was “competitive” in [6] (OfChi-h, inhibition kinetics); “competitive” in experiment [7] (inhibition kinetics); “competitive” in [8] (AMCase, inhibition kinetics); “competitive” in experiment [9] (SmChiA, inhibition kinetics); “competitive” in experiment [10] (OfChtI, inhibition kinetics). In addition, in experiment [7] (1.0 M NaCl vs. standard buffer), the “increase of K i in buffer containing 1.0 M NaCl” value is given as 6 fold. In experiment [10] (at 10 μM, preliminary screening of a natural products library, read-out: inhibition against OfChtI), the inhibition at 10 µM came to 92.5%.
